1 compound from US9446019B2, “Sparstolonin B based pharmaceutical agent for neuroblastoma treatment” (University of South Carolina, priority 2013, dated 2016) can be followed below.

By IC20 is commonly meant the point of the concentration-response curve where the effect stands at 20%. Read a high IC20 as a need for much substance. What is called IC50 is the concentration needed to halve the response being measured. A lower IC50 goes with greater potency.

In assay [1] the test system is human neuroblastoma cell lines (SH-SY5Y, SKNF-1, NGP, IMR-32 and SK-N-BE(2) cells). The experiment in a line: MTT cell viability assay. It is filed as cell-based. The source says:
Human neuroblastoma cell lines (SH-SY5Y, IMR-32, SK-N-BE(2) and SKNF-1 cells) were obtained from The American Type Culture Collection (ATCC; Manassas, Va.), and NGP cells were kind gift from Garrett M. Brodeur (The Children's Hospital of Philadelphia, Philadelphia, Pa.). All cell lines were maintained in complete Dulbecco's Modified Eagle's Medium (DMEM) supplemented with 10% fetal bovine serum (FBS; Atlanta Biologicals, Lawrenceville, Ga.) and 1× antibiotic-antimycotic solution (containing 100 U/ml penicillin, 100 μg/ml streptomycin and 0.25 μg/ml amphotericin B), and grown at 37° C. in a humidified incubator with 5% CO2. Stock solution of SsnB was prepared in dimethyl sulfoxide (DMSO). Cells treated with different concentrations of SsnB in DMEM with 10% FBS were grown for subsequent days. Cells treated with equal volume of DMSO were used as control.
The viability of SsnB-treated cells was determined by MTT assay following manufacturer's instructions (Roche diagnostics corporation, Indianapolis, Ind.). Briefly, cells (1×10^4 cells/well) grown in 96-well cell culture plate were incubated with or without SsnB in 100 μl of complete culture medium with 10% FBS. After treatments, cells were incubated with 10 μl of MTT reagent for 4 h and then incubated overnight in solubilization buffer (100 μl) at 37° C. Absorbance of the formazan product was read at 575 nm in spectramax spectrophotometer (Molecular Devices, Sunnyvale, Calif.). A reference wavelength of 690 nm was used to detect background. The measured absorption directly correlated with the number of viable cells in culture. The experiments were performed in triplicate and repeated at least three times.
MTT assay was carried out to examine the effects of SsnB on viability of all the above listed neuroblastoma cells. After 2 days (SH-SY5Y and IMR-32), 3 days (NGP cells) or 4 days (SKNF-1 and SK-N-BE(2) cells) treatment with SsnB (1, 5, 10 and 20 μM), MTT cell viability assays were performed.
(In general: Formazan colour is commonly taken as a measure of viable cells.)

A further assay has as its system neuroblastoma cells. The experiment in a line: TUNEL assay for DNA fragmentation in cells. It is filed as cell-based, human. The source says: Increased levels of ROS are known to induce oxidative stress which in turn cleaves DNA that leads to cell death. SsnB-induced DNA fragmentation in neuroblastoma cells was examined by terminal deoxynucleotidyl transferase dUTP nick end labeling (TUNEL) assay. In this assay, nicked DNA is identified by the addition of fluorophore-labeled dUTPs by enzyme terminal deoxynucleotidyl transferase (TdT) to the terminal ends of damaged DNA in apoptotic cells. The TUNEL-positive cells were quantitated by ImageJ programme and plotted. […] However, such TUNEL-positive cells were not detected in DMSO- or SsnB (1 μM)-treated cells.

Assay [2] concerns N-myc in IMR-32, NGP and SK-N-BE(2) cells. The experiment in a line: N-myc protein level by Western blotting. It is filed as cell-based, human. The method, then: After treatment with SsnB, cells were collected, washed with 1×PBS, and lysed with 1× cell lysis buffer (Cell Signaling Technology, Danvers, Mass.) containing phenylmethylsulfonyl fluoride (PMSF) and protease inhibitors (aprotinin and leupeptin) for 30 min on ice, and centrifuged at 12000×rpm for 10 min at 4° C. Supernatant (total cell protein) was collected and stored at −80° C. Protein concentration was determined by bicinchoninic acid method using BCA protein assay kit (Pierce/ThermoScientific, Waltham, Mass.). Equal amount of proteins were diluted with 5× Laemmli samples loading buffer and boiled for five minutes. The proteins were subjected to sodium dodecyl sulfate (SDS)-polyacrylamide gel electrophoresis and analyzed by Western blots. Briefly, after electrophoresis, proteins were transferred on polyvinylidene difluoride (PVDF) membrane at 100 volt for 3 h in cold room. […] Signals were detected by chemiluminiscence detection kit (Pierce/Thermo Fisher Scientific, Rockford, Ill.). […]
The level of N-myc proteins was evaluated from 2 days (IMR-32), 3 days (NGP cells) or 4 days (SK-N-BE(2) cells) SsnB-treated N-myc amplified neuroblastoma cells by Western blotting, and protein signal intensity was measured by ImageJ programme and plotted. […]
(A western blot detects proteins with antibodies after separation by electrophoresis.)

In assay [3] the test system is SK-N-BE(2) and SH-SY5Y cells. The experiment in a line: Two layer soft agarose colony formation assay. It is filed as cell-based, human. The settings on record: SsnB 10 μM, 45 days. The method, then:
A two layer soft agarose assay system was used in these studies. Approximately 1×10^4 cells were suspended in 0.35% agarose in DMEM with 10% FBS, and were gently laid on the bottom agarose layer containing 0.8% agarose with DMEM+10% FBS in 35 mm^2 cell culture dishes. Once solidified, the dishes were incubated at 37° C. in a humidified chamber with 5% CO2. Next day, 500 μl of complete cell culture medium with respective concentrations of SsnB was added, and cells were allowed to grow for 45 days in an incubator chamber. Fresh medium with respective concentrations of SsnB was added to the dishes in every 5 days. Cells treated with equal volume of DMSO were used as control. At the end of experiments, cells were stained with 0.1% crystal violet and cell colonies (more than 15 cells per colony) were counted under the light microscope.
The anti-proliferative activity of SsnB to affects the tumor progression property of neuroblastoma cells was tested by performing two layer agarose gel colony formation assays. Agarose gel colony formation assay is an anchorage-independent in vitro cell transformation assay, and mimics the process of in vivo carcinogenesis. Neuroblastoma cells (N-myc amplified cell, SK-N-BE(2), and N-myc nonamplified cell, SH-SY5Y) were grown in agarose in presence or absence of SsnB (1 μM and 10 μM) and after 45 days the number of colonies was counted.

The mark [4] stands for this setting: Homo sapiens, MTT, 2 days (SH-SY5Y, IMR-32), 3 days (NGP), 4 days (SKNF-1, SK-N-BE(2)), range over the cell lines.

Regarding `O=c1occ2c3c(ccc(O)c13)Oc1ccc(O)cc1-2` [SsnB, 8,5′-dihydroxy-4-phenyl-5,2′-oxidoisocoumarin], the IC20 in assay [1] (setting [4]) lay in the range of 6 to 8 µM. In assay [1] (setting [4]), this compound yielded an IC50 of 10 to 12 µM. For the same compound, the “sensitivity towards SsnB treatment” value in assay [1] (NGP cell) is “moderately sensitive”; in assay [1] (SH-SY5Y and IMR-32 cells), “most sensitive”; in assay [1] (SKNF-1 and SK-N-BE(2) cell lines), “least sensitive”. Besides, the “cell survival vs DMSO” value in assay [1] (SsnB 1 μM or 5 μM, p>0.05) is recorded as “No significant difference in cell survival”. In addition, in assay [1] (SsnB 10 μM alone, MTT, range over cell lines (FIG. 5A)), the neuroblastoma cell death is on record as 40-60%. In addition, the “cell viability vs DMSO” value in assay [1] (SsnB at and above 10 μM, p<0.05) was “significantly reduced the viability”. Also, the “number of TUNEL-positive cells vs control” value in the assay on neuroblastoma cells (SsnB 1 μM, nonsignificant) is recorded as “almost similar to DMSO-treated samples”; in the assay with neuroblastoma cells (SsnB 10 μM, all neuroblastoma cells) it was “significantly higher”. In addition, the “reduction in N-myc protein expression” value in assay [2] (SsnB 1 μM, nonsignificant vs control) is recorded as “not observed”. For the same compound, in assay [2] (SsnB 10 μM, 2 days (IMR-32), 3 days (NGP), 4 days (SK-N-BE(2))), the N-myc protein expression entry was “inhibited the expression of N-myc protein”. Besides, the size of colonies entry in assay [3] (vs control and SsnB 1 μM) is “significantly smaller”. Moreover, the “colony formation capability (number of colonies)” value in assay [3] (p<0.05 vs control) is reported as “significantly inhibited the colony formation capability”.
